≈ marks a conversion by molar mass, not a printed value. Like-named read-outs stand apart in the source and are kept apart here.
What was measured:
Assay type in all cases: cell-based
P. aeruginosa ATCC 27853 = assay: In vitro antibacterial evaluation, MIC by agar dilution, P. aeruginosa ATCC 27853; conditions: Pseudomonas aeruginosa, ATCC27853, read-out: MIC
Method in brief: (§1)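 Minimum inhibitory concentrations came from the NCCLS agar dilution method in Mueller-Hinton agar. Each isolate received about 10^4 cfu per spot, and plates were read after 16-20 hours at 35°-36° C.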

S. aureus ATCC 25923 = assay: In vitro antibacterial evaluation, MIC by agar dilution, S. aureus ATCC 25923; conditions: Staphylococcus aureus, ATCC25923
Method in brief: as §1

S. haemolyticus (Meth^R) = assay: In vitro antibacterial evaluation, MIC by agar dilution, S. haemolyticus; conditions: Staphylococcus haemolyticus, read-out: MIC
Method in brief: as §1

S. aureus ATCC 29213 = assay: In vitro antibacterial evaluation, MIC by agar dilution, S. aureus ATCC 29213; conditions: Staphylococcus aureus, ATCC29213
Method in brief: as §1

E. faecium ATCC 35667 = assay: In vitro antibacterial evaluation, MIC by agar dilution, E. faecium ATCC 35667; conditions: Enterococcus faecium, ATCC35667, read-out: MIC
Method in brief: as §1

[1] = system: S. aureus 76 (Meth^R)(lac^+); assay: In vitro antibacterial evaluation, MIC by agar dilution, S. aureus 76; conditions: Staphylococcus aureus, read-out: MIC
Method in brief: as §1

[2] = system: S. epidermidis ATCC 31432; assay: In vitro antibacterial evaluation, MIC by agar dilution, S. epidermidis ATCC 31432; conditions: Staphylococcus epidermidis, ATCC31432
Method in brief: as §1

E. faecalis ATCC 29212 = assay: In vitro antibacterial evaluation, MIC by agar dilution, E. faecalis ATCC 29212; conditions: Enterococcus faecalis, ATCC29212; E. faecalis ATCC 29212; read-out: MIC
Method in brief: as §1

E. coli ATCC 25922 = assay: In vitro antibacterial evaluation, MIC by agar dilution, E. coli ATCC 25922; conditions: Escherichia coli, ATCC25922, read-out: MIC
Method in brief: as §1

[3] = system: S. aureus Col8A (Meth^S)(lac^-); assay: In vitro antibacterial evaluation, MIC by agar dilution, S. aureus Col8A; conditions: Staphylococcus aureus
Method in brief: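 Agar dilution per NCCLS (1991): two-fold dilutions from 128 μg/mL down to ≤0.25 μg/mL in Mueller-Hinton agar, each level in duplicate. Spots of about 10^4 cfu of log-phase culture; 16-20 h at 35°-36° C. MIC in μg/ml is the lowest concentration inhibiting growth.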

[4] = system: X. maltophilia ATCC 13637; assay: In vitro antibacterial evaluation, MIC by agar dilution, X. maltophilia ATCC 13637; conditions: Stenotrophomonas maltophilia, ATCC13637
Protocol: The compounds of the invention were evaluated against several β-lactamresistant bacteria strains by determining the minimum inhibitory concentration (MIC, μg/ml) of each compound with respect to each strain. The MIC, the lowest concentration of antibiotic which inhibits growth of the test organism, was determined by the agar dilution method.
To determine the MIC for bacterial isolates, the test compound was incorporated in a series of two-fold dilutions into liquified Mueller-Hinton agar. Upon solidification, a number of different bacterial strains were spot inoculated with a replicating device onto the agar surface. […] The procedures used in these studies have been standardized by the National Committee for Clinical Laboratory Standards (NCCLS), as per the NCCLS publication entitled METHODS FOR DILUTION ANTIMICROBIAL SUSCEPTIBILITY TESTS (1991), which is incorporated herein by reference.
Aliquots of antimicrobial agents were prepared in phosphate buffered saline (PBS) at pH 7.2. Tween 20 or DMSO was used as a solubilizing vehicle as needed. Standard methods of vortexing, sonicating and gentle heat were used to facilitate solubilizing the test agent. Typically, the concentration of the stock solution was 10× that of the highest drug concentration tested. A 1.28 mg/mL stock solution was used with a subsequent highest working concentration of 128 μg/mL. Serial two-fold dilutions were done through ≤0.25 μg/mL. Each drug level was tested in duplicate. Two-fold drug dilutions were done in sterile 50 mL tubes with a final drug volume of 5 mL. Upon the addition of 45 mL of molten agar, a 10-fold dilution resulted. Two, 25 mL. plates were then poured into 15×150 mm square Petri plates with grids and allowed to harden.
A control plate with a reference drug, either cefotaxime, vancomycin or imipenem, was used as the positive growth control. Stock concentrations of reference antibiotics were prepared and frozen at -80° C. Upon preparation, the control plates were sealed and stored in the refrigerator for up to 1 week prior to use; however, imipenem control plates had to be prepared just prior to use. All test plates were used within 24 hours of preparation.
Satisfactory results were obtained where the inoculum contained about 10^4 colony forming units (cfu) ±0.5 logs. Starting with pure cultures of the test isolates on agar plates, a few isolated colonies were transferred to a tube of nutrient broth and allowed to grow 4-6 hours at 35°-36° C. to reach log-phase growth. Dropwise addition of the broth culture to PBS was done to match a 0.5 McFarland turbidity standard equal to 10^8 cfu/mL. This was further diluted ten-fold in PBS to reach a working inoculum concentration of 10^7 cfu/mL. When 1 μL of the working inoculum was applied to the agar surface a concentration of about 10^4 cfu per spot was obtained.
Disposable sterile 1 μL loops were used to inoculate test plates, with each isolate in a designated grid on the agar plate. An alternate method of inoculation involved the use of a replica plater, a device with 48 steel pins allowing the simultaneous inoculation of multiple isolates. After the spots had dried, the plates were incubated at 35°-36° C. for 16-20 hours. Endpoints were assessed as the minimum inhibitory concentration (MIC) of antimicrobial agent.

[5] = S. aureus ATCC 25923, read-out: MIC
[6] = S. aureus ATCC 29213, read-out: MIC
[7] = S. epidermidis ATCC 31432, read-out: MIC

| SMILES | MIC (P. aeruginosa ATCC 27853) | MIC (S. aureus ATCC 25923; [5]) | MIC (S. haemolyticus (Meth^R)) | MIC (S. aureus ATCC 29213; [6]) | MIC (E. faecium ATCC 35667) | MIC [1] | MIC [2, 7] | MIC (E. faecalis ATCC 29212) | MIC (E. coli ATCC 25922) | MIC [3] | MIC [4] | MIC (S. aureus ATCC 25923) | MIC [2] | MIC (S. aureus ATCC 29213) |
| --- | --- | --- | --- | --- | --- | --- | --- | --- | --- | --- | --- | --- | --- | --- |
| O=C(Cc1ccccc1)N[C@@H]1C(=O)N2C(C(=O)O)=C(Sc3ccc(Br)cc3)CS[C@H]12 [Cmpd 5, (7R)-7-[(Phenylacetyl)amino]-3-(p-bromophenylthio)-3-cephem-4-carboxylic acid] | > 32 µg/mL | < 0.015 µg/mL | 16 µg/mL (≈ 31.7 µM) | 0.03 µg/mL (≈ 0.0594 µM) | 4 µg/mL (≈ 7.91 µM) | 16 µg/mL (≈ 31.7 µM) | < 0.015 µg/mL | 2 µg/mL (≈ 3.96 µM) | > 32 µg/mL | 0.03 µg/mL (≈ 0.0594 µM) | > 32 µg/mL |  |  |  |
| O=C(Cc1ccccc1)N[C@@H]1C(=O)N2C(C(=O)O)=C(Sc3ccc(-c4ccccc4)cc3Br)CS[C@H]12 [Cmpd 11, (7R)-7-[(Phenylacetyl)amino]-3-(2-bromo-4-biphenylthio)-3-cephem-4-carboxylic acid] | > 32 µg/mL | < 0.015 µg/mL | 4 to 8 µg/mL (≈ 6.88 to 13.8 µM) | 0.125 µg/mL (≈ 0.215 µM) | 4 µg/mL (≈ 6.88 µM) | 4 µg/mL (≈ 6.88 µM) | 0.03 µg/mL (≈ 0.0516 µM) | 2 µg/mL (≈ 3.44 µM) | > 32 µg/mL | 0.06 µg/mL (≈ 0.103 µM) | > 32 µg/mL |  |  |  |
| O=C(Cc1ccccc1)N[C@@H]1C(=O)N2C(C(=O)O)=C(Sc3ccc(F)cc3)CS[C@H]12 [Cmpd 1, (7R)-7-[(Phenylacetyl)amino]-3-(p-fluorophenylthio)-3-cephem-4-carboxylic acid] | > 32 µg/mL | < 0.015 µg/mL | > 32 µg/mL | 0.03 µg/mL (≈ 0.0675 µM) | 8 µg/mL (≈ 18 µM) | 32 µg/mL (≈ 72 µM) | < 0.015 µg/mL | 2 µg/mL (≈ 4.5 µM) | > 32 µg/mL | 0.03 µg/mL (≈ 0.0675 µM) | > 32 µg/mL |  |  |  |
| O=C(Cc1ccccc1)N[C@@H]1C(=O)N2C(C(=O)O)=C(Sc3ccc(Cl)cc3)CS[C@H]12 [Cmpd 3, (7R)-7-[(Phenylacetyl)amino]-3-(p-chlorophenylthio)-3-cephem-4-carboxylic acid] | > 32 µg/mL |  | 16 µg/mL (≈ 34.7 µM) | 0.03 µg/mL (≈ 0.0651 µM) | 4 µg/mL (≈ 8.68 µM) | 16 µg/mL (≈ 34.7 µM) |  | 2 µg/mL (≈ 4.34 µM) | > 32 µg/mL | 0.015 µg/mL (≈ 0.0325 µM) | > 32 µg/mL | < 0.015 µg/mL | < 0.015 µg/mL |  |
| O=C(Cc1ccccc1)N[C@@H]1C(=O)N2C(C(=O)O)=C(Sc3ccccc3Br)CS[C@H]12 [Cmpd 4, (7R)-7-[(Phenylacetyl)amino]-3-(o-bromophenylthio)-3-cephem-4-carboxylic acid] | > 32 µg/mL | < 0.06 µg/mL | 16 µg/mL (≈ 31.7 µM) | 0.125 µg/mL (≈ 0.247 µM) | 2 µg/mL (≈ 3.96 µM) | 4 µg/mL (≈ 7.91 µM) | < 0.06 µg/mL | 4 µg/mL (≈ 7.91 µM) | > 32 µg/mL | < 0.06 µg/mL | > 32 µg/mL |  |  |  |
| O=C(Cc1ccccc1)N[C@@H]1C(=O)N2C(C(=O)O)=C(Sc3ccc(-c4ccccc4)cc3F)CS[C@H]12 [Cmpd 13, (7R)-7-[(Phenylacetyl)amino]-3-(2-fluoro-4-biphenylthio)-3-cephem-4-carboxylic acid] | > 32 µg/mL | < 0.015 µg/mL | 16 µg/mL (≈ 30.7 µM) | 0.06 µg/mL (≈ 0.115 µM) | 4 µg/mL (≈ 7.68 µM) | 16 µg/mL (≈ 30.7 µM) | 0.03 µg/mL (≈ 0.0576 µM) | 2 µg/mL (≈ 3.84 µM) | > 32 µg/mL | 0.06 µg/mL (≈ 0.115 µM) | > 32 µg/mL |  |  |  |
| O=C(Cc1ccccc1)N[C@@H]1C(=O)N2C(C(=O)O)=C(Sc3ccc4c(c3)oc3ccccc34)CS[C@H]12 [Cmpd 7, (7R)-7-[(Phenylacetyl)amino]-3-(dibenzofuranyl-3-thio)-3-cephem-4-carboxylic acid] | > 32 µg/mL | < 0.06 µg/mL |  | < 0.06 µg/mL |  | 16 µg/mL (≈ 31 µM) | < 0.06 µg/mL | 1 µg/mL (≈ 1.94 µM) | > 32 µg/mL | 0.06 µg/mL (≈ 0.116 µM) | > 32 µg/mL |  |  |  |
| O=C(Cc1ccccc1)N[C@@H]1C(=O)N2C(C(=O)O)=C(Sc3ccccc3Cl)CS[C@H]12 [Cmpd 15, (7R)-7-[(Phenylacetyl)amino]-3-(o-chlorophenylthio)-3-cephem-4-carboxylic acid] | > 32 µg/mL | 0.03 µg/mL (≈ 0.0651 µM) | 16 µg/mL (≈ 34.7 µM) | 0.06 µg/mL (≈ 0.13 µM) | 2 µg/mL (≈ 4.34 µM) | 8 µg/mL (≈ 17.4 µM) | 0.03 µg/mL (≈ 0.0651 µM) | 2 µg/mL (≈ 4.34 µM) | > 32 µg/mL | 0.06 µg/mL (≈ 0.13 µM) | > 32 µg/mL |  |  |  |
| O=C(Cc1ccccc1)N[C@@H]1C(=O)N2C(C(=O)O)=C(Sc3ccc(-c4ccccc4)cc3)CS[C@H]12 [Cmpd 8, (7R)-7-[(Phenylacetyl)amino]-3-(4-biphenylthio)-3-cephem-4-carboxylic acid] | > 32 µg/mL |  |  |  |  | > 32 µg/mL |  | 4 µg/mL (≈ 7.96 µM) | > 32 µg/mL | < 0.125 µg/mL | > 32 µg/mL | < 0.125 µg/mL | < 0.125 µg/mL | < 0.125 µg/mL |
| O=C(Cc1ccccc1)N[C@@H]1C(=O)N2C(C(=O)O)=C(Sc3cccc(-c4ccccc4)c3)CS[C@H]12 [Cmpd 10, (7R)-7-[(Phenylacetyl)amino]-3-(3-biphenylthio)-3-cephem-4-carboxylic acid] | > 32 µg/mL | < 0.06 µg/mL |  |  |  | 32 µg/mL (≈ 63.7 µM) | < 0.06 µg/mL | 2 µg/mL (≈ 3.98 µM) | > 32 µg/mL | 0.125 µg/mL (≈ 0.249 µM) | > 32 µg/mL |  |  | 0.125 µg/mL (≈ 0.249 µM) |
